From patent US20050197350A1, “Novel quinoline, tetrahydroquinazoline, and pyrimidine derivatives and methods of treatment related to the use thereof” (TAISHO PHARMACEUTICAL CO., LTD., priority 2003, published 2005)
Structures can show the parent of a compound that is named as a salt.

Target: MCH receptor (Homo sapiens, UniProt Q99705)
Assay: High throughput functional screening FLIPR/FDSS6000 (intracellular Ca2+ evoked by MCH)
Format: cell-based
Conditions: FLIPR/FDSS, antagonist activity vs 50 nM MCH; class by percent of control at 10^−7 M or IC50; table after the classification; read-out: class
Excerpt: High Throughput Functional Screening: FLIPR™
This assay utilized a non-endogenous, constitutively active version of the MCH receptor.
The concentration of free Ca^2+ in the cytosol of any cell is extremely low, whereas its concentration in the extracellular fluid and endoplasmic reticulum (ER) is very high. Thus, there is a large gradient tending to drive Ca^2+ into the cytosol across both the plasma membrane and ER. The FLIPR™ and FDSS6000™ systems (Molecular Devices Corporation, […] Photonics K.K.) are designed to perform functional cell-based assays, such as the measurement of intracellular calcium for high-throughput screening. The measurement of fluorescent is associated with calcium release upon activation of the Gq-coupled receptors.
Fluorometric Imaging Plate Reader system was used to allow for rapid, kinetic measurements of intracellular fluorescence in 96 well microplates (or 384 well microplates). Simultaneous measurements of fluorescence in all wells can be made by FLIPR or FDSS6000™ every second with high sensitivity and precision. These systems are ideal for measuring cell-based functional assays such as monitoring the intracellular calcium fluxes that occur within seconds after activation of the Gq coupled receptor.
Briefly, the cells are seeded into 96 well at 5.5×10^4 cells/well with complete culture media (Dulbecco's Modified Eagle Medium with 10% fetal bovine serum, 2 mM L-glutamine, 1 mM sodium pyruvate and 0.5 mg/ml G418, pH 7.4) for the assay next day. On the day of assay, the media is removed and the cells are incubated with 100 μl of loading buffer (4 μM Fluo4-AM in complete culture media containing 2.5 mM Probenicid, 0.5 mg/ml and 0.2% bovine serum albumin) in 5% CO2 incubator at 37° C. for 1 hr. The loading buffer is removed, and the cells are washed with wash buffer (Hank's Balanced Salt Solution containing 2.5 mM Probenicid, 20 mM HEPES, 0.5 mg/ml and 0.2% bovine serum albumin, pH 7.4)). One hundred fifty μl of wash buffer containing various concentrations of test compound is added to the cells, and the cells are incubated in 5% CO2 incubator at 37° C. for 30 min. […] 530 nm for 290 second. When antagonist activity of compound is tested, 50 nM of MCH is used.
Use of FLIPR™ and FDSS6000™ can be accomplished by following manufacturer's instruction (Molecular Device Corporation and […] Photonics K.K.).

Row | SMILES | IC50 [nM]
1 | O=C(N[C@H]1CC[C@@H](Nc2ccc3ccccc3n2)CC1)c1ccc(F)c(F)c1 [Example 3031, 3,4-Difluoro-N-[cis-4-(quinolin-2-ylamino)-cyclohexyl]-benzamide hydrochloride] | < 50
2 | O=C(N[C@H]1CC[C@@H](Nc2ccc3ccccc3n2)CC1)c1cccnc1Oc1ccccc1 [Example 3032, 2-Phenoxy-N-[cis-4-(quinolin-2-ylamino)-cyclohexyl]-nicotinamide hydrochloride] | < 50
3 | Cc1cccc(C(=O)N[C@H]2CC[C@@H](Nc3ccc4ccccc4n3)CC2)c1 [Example 3033, 3-Methyl-N-[cis-4-(quinolin-2-ylamino)-cyclohexyl]-benzamide hydrochloride] | < 50
4 | O=C(N[C@H]1CC[C@@H](Nc2ccc3ccccc3n2)CC1)c1cccc(Cl)c1 [Example 3035, 3-Chloro-N-[cis-4-(quinolin-2-ylamino)-cyclohexyl]-benzamide hydrochloride] | < 50
5 | O=C(N[C@H]1CC[C@@H](Nc2ccc3ccccc3n2)CC1)c1csc([N+](=O)[O-])c1 [Example 3036, 5-Nitro-thiophene-3-carboxylic acid [cis-4-(quinolin-2-ylamino)-cyclohexyl]-amide hydrochloride] | < 50
6 | O=C(N[C@H]1CC[C@@H](Nc2ccc3ccccc3n2)CC1)c1cccnc1Cl [Example 3037, 2-Chloro-N-[cis-4-(quinolin-2-ylamino)-cyclohexyl]-nicotinamide hydrochloride] | > 200
7 | O=C(N[C@H]1CC[C@@H](Nc2ccc3ccccc3n2)CC1)c1ccc(F)c(Cl)c1 [Example 3038, 3-Chloro-4-fluoro-N-[cis-4-(quinolin-2-ylamino)-cyclohexyl]-benzamide hydrochloride] | < 50
8 | COc1cc(OC)cc(C(=O)N[C@H]2CC[C@@H](Nc3ccc4ccccc4n3)CC2)c1 [Example 3039, 3,5-Dimethoxy-N-[cis-4-(quinolin-2-ylamino)-cyclohexyl]-benzamide hydrochloride] | < 50
9 | O=C(N[C@H]1CC[C@@H](Nc2ccc3ccccc3n2)CC1)c1ccc(Cl)c(Cl)c1 [Example 3040, 3,4-Dichloro-N-[cis-4-(quinolin-2-ylamino)-cyclohexyl]-benzamide hydrochloride] | < 50
10 | O=C(N[C@H]1CC[C@@H](Nc2ccc3ccccc3n2)CC1)c1ccc2nonc2c1 [Example 3041, Benzo[2,1,3]oxadiazole-5-carboxylic acid-[cis-4-(quinolin-2-ylamino)-cyclohexyl]-amide hydrochloride] | < 50
11 | Cn1cc([N+](=O)[O-])cc1C(=O)N[C@H]1CC[C@@H](Nc2ccc3ccccc3n2)CC1 [Example 3042, 1-Methyl-4-nitro-1H-pyrrole-2-carboxylic acid [cis-4-(quinolin-2-ylamino)-cyclohexyl]-amide hydrochloride] | < 50
12 | O=C(N[C@H]1CC[C@@H](Nc2ccc3ccccc3n2)CC1)C1c2ccccc2Oc2ccccc21 [Example 3043, 9H-Xanthene-9-carboxylic acid [cis-4-(quinolin-2-ylamino)-cyclohexyl]-amide hydrochloride] | < 50
13 | O=C(N[C@H]1CC[C@@H](Nc2ccc3ccccc3n2)CC1)c1ccc(-c2ccc(Cl)cc2)o1 [Example 3044, 5-(4-Chloro-phenyl)-furan-2-carboxylic acid [cis-4-(quinolin-2-ylamino)-cyclohexyl]-amide hydrochloride] | 50 to 200
14 | O=C(N[C@H]1CC[C@@H](Nc2ccc3ccccc3n2)CC1)c1cccc([N+](=O)[O-])c1 [Example 3045, 3-Nitro-N-[cis-4-(quinolin-2-ylamino)-cyclohexyl]-benzamide hydrochloride] | < 50
15 | Cc1cc(C(=O)N[C@H]2CC[C@@H](Nc3ccc4ccccc4n3)CC2)ccc1F [Example 3046, 4-Fluoro-3-methyl-N-[cis-4-(quinolin-2-ylamino)-cyclohexyl]-benzamide hydrochloride] | < 50
16 | O=C(N[C@H]1CC[C@@H](Nc2ccc3ccccc3n2)CC1)c1cccc(Br)c1 [Example 3047, 3-Bromo-N-[cis-4-(quinolin-2-ylamino)-cyclohexyl]-benzamide hydrochloride] | < 50
17 | O=C(N[C@H]1CC[C@@H](Nc2ccc3ccccc3n2)CC1)c1cccnc1Oc1ccccc1Br [Example 3048, 2-(2-Bromophenoxy)-N-[cis-4-(quinolin-2-ylamino)-cyclohexyl]-nicotinamide hydrochloride] | < 50
18 | N#Cc1cccc(C(=O)N[C@H]2CC[C@@H](Nc3ccc4ccccc4n3)CC2)c1 [Example 3049, 3-Cyano-N-[cis-4-(quinolin-2-ylamino)-cyclohexyl]-benzamide hydrochloride] | < 50
19 | O=C(N[C@H]1CC[C@@H](Nc2ccc3ccccc3n2)CC1)c1cccc(C(F)(F)F)c1 [Example 3050, N-[cis-4-(Quinolin-2-ylamino)-cyclohexyl]-3-trifluoromethyl-benzamide hydrochloride] | < 50
20 | Cc1cccc(OCC(=O)N[C@H]2CC[C@@H](Nc3ccc4ccccc4n3)CC2)c1 [Example 3051, N-[cis-4-(Quinolin-2-ylamino)-cyclohexyl]-2-m-tolyloxy-acetamide hydrochloride] | < 50
21 | O=C(N[C@H]1CC[C@@H](Nc2ccc3ccccc3n2)CC1)C(c1ccccc1)c1ccccc1 [Example 3052, 2,2-Diphenyl-N-[cis-4-(quinolin-2-ylamino)-cyclohexyl]-acetamide hydrochloride] | < 50
22 | O=C(N[C@H]1CC[C@@H](Nc2ccc3ccccc3n2)CC1)c1ccc(Br)o1 [Example 3053, 5-Bromo-furan-2-carboxylic acid [cis-4-(quinolin-2-ylamino)-cyclohexyl]-amide hydrochloride] | < 50
23 | O=C(N[C@H]1CC[C@@H](Nc2ccc3ccccc3n2)CC1)c1cccnc1Oc1ccc(F)cc1 [Example 3054, 2-(4-Fluoro-phenoxy)-N-[cis-4-(quinolin-2-ylamino)-cyclohexyl]-nicotinamide hydrochloride] | < 50
24 | O=C(N[C@H]1CC[C@@H](Nc2ccc3ccccc3n2)CC1)c1cccnc1Oc1ccc(F)c(F)c1 [Example 3055, 2-(3,4-Difluoro-phenoxy)-N-[cis-4-(quinolin-2-ylamino)-cyclohexyl]-nicotinamide hydrochloride] | < 50
25 | Cc1ccc(Oc2ncccc2C(=O)N[C@H]2CC[C@@H](Nc3ccc4ccccc4n3)CC2)cc1 [Example 3056, N-[cis-4-(Quinolin-2-ylamino)-cyclohexyl]-2-p-tolyloxy-nicotinamide hydrochloride] | < 50
26 | O=C(N[C@H]1CC[C@@H](Nc2ccc3ccccc3n2)CC1)c1cccnc1Oc1ccc(Cl)cc1 [Example 3057, 2-(4-Chloro-phenoxy)-N-[cis-4-(quinolin-2-ylamino)-cyclohexyl]-nicotinamide hydrochloride] | < 50
27 | O=C(N[C@H]1CC[C@@H](Nc2ccc3ccccc3n2)CC1)c1cccnc1Oc1ccc(Br)cc1 [Example 3058, 2-(4-Bromo-phenoxy)-N-[cis-4-(quinolin-2-ylamino)-cyclohexyl]-nicotinamide hydrochloride] | < 50

Same assay, conditions: FLIPR/FDSS, antagonist activity vs 50 nM MCH; representative examples; read-out: IC50

Row | SMILES | IC50 [nM]
28 | Cc1cccc(C(=O)N[C@H]2CC[C@@H](Nc3nc(C)cc(N(C)C)n3)CC2)c1 [Example 2526, N-(cis-4-{[4-(Dimethylamino)-6-methylpyrimidin-2-yl]amino}cyclohexyl)-3-methylbenzamide trifluoroacetate] | 7.6
